Measured values published in patent US9797883B2, “Re-trafficking of herg reverses long QT syndrome 2 phenotype in human iPS-derived cardiomyocytes” (Singapore Health Services Pte Ltd, priority 2013, dated 2017).
“Also recorded” adds a separate entry of the source.

Key:
[1] = tested on: LQTS2-EBs; test: Microelectrode array (MEA) extracellular field potential recordings, LQTS2; format: cell-based, human; details: for cFPD (repolarization duration): human LQTS2 CMs
Text: (§1) To characterize the electrophysiological properties of the hiPS-CMs, a microelectrode array (MEA) recording system (Multichannel Systems, Reutlingen, Germany) was used as described previously. Briefly, contracting areas were micro-dissected and plated on MEA plates, allowed to adjust for 72 hrs before recording. All clusters were monitored for their beating abilities (beats/min) under the microscope during the 72 hr period. Clusters that maintained relatively uniform beating rates were then subjected to drugs. The MEA system allows simultaneous recordings from 60 titanium nitride-coated gold electrodes (30 μm) at high spatial (200 μm) and temporal (15 kHz) resolutions. All stock drugs were diluted in medium (2 mL) to assess the effects on the electrophysiological properties. […]. MEA clip along with the beating clusters was maintained on 37° C. throughout the duration of experiments. Care was also taken that all buffers including the medium utilized during all experimentation were pre-warmed to 37° C. All tested drugs were procured from Sigma-Aldrich, MO, USA. All extracellular recordings were performed for 180 seconds at baseline and at 5 minutes after drug application at 37° C. Data were recorded using MC Rack software (Multichannel System) and the recordings were used to determine the local field potential duration (FPD). FPD measurements were normalized (corrected FPD [cFPD]) to the beating rate of the contracting areas with the Bazzet correction formula: cFPD=FPD/√(RR interval).

[2] = tested on: control-EBs; test: Microelectrode array (MEA) extracellular field potential recordings, control; format: cell-based, human; details: 100 nM E-4031, control contracting EBs
Text: as §1, with “FPD measurements were normalized (corrected FPD [cFPD]) to the beating rate of the contracting areas with the Bazzet correction formula: cFPD=FPD/√(RR interval).” left out

[3] = atenolol 10 μM after isoproterenol, LQTS2-EBs

SMILES: O=C([O-])CCCc1ccccc1.[Na+] [4PBA, sodium 4-phenylbutyrate]
- cFPD (repolarization duration) ([1]; sodium 4-phenylbutyrate 400 μM): shortening the cFPD
- cFPD (repolarization duration) ([1]; sodium 4-phenylbutyrate 400 μM, listed as 4BPA): shortening of repolarization duration

SMILES: Cc1cccc(CCN2CCC(C(=O)c3ccc(NS(C)(=O)=O)cc3)CC2)n1 [E-4031]
- beating rate-corrected field potential duration (cFPD) ([1]; 100 nM E-4031, LQTS2 contracting EBs): increased cFPDs significantly
- beating rate-corrected field potential duration (cFPD) [2]: increased cFPDs significantly

SMILES: Cc1ccc(NC(=O)C2(c3ccc4c(c3)OC(F)(F)O4)CC2)nc1-c1cccc(C(=O)O)c1 [VX-809, 3-[6-[[1-(2,2-difluoro-1,3-benzodioxol-5-yl)cyclopropanecarbonyl]amino]-3-methylpyridin-2-yl]benzoic acid]
- cFPD (repolarization duration) ([1]; VX-809 10 μM): shortening the cFPD; also recorded: shortening of repolarization duration

SMILES: CC(C)NCC(O)c1ccc(O)c(O)c1 (stereo not shown) [isoproterenol]
- arrhythmogenic episodes ([1]; isoproterenol 1 uM, LQTS2-EBs): aggravating arrhythmogenic episodes
- beating frequencies ([1]; isoproterenol 1 uM, LQTS2-EBs): increased beating frequencies
- cFPD ([1]; isoproterenol 1 uM, LQTS2-EBs, n=15, LQTS2-baseline 0.657±0.07 s): 0.212 ± 0.02 s

SMILES: CC(C)NCC(O)COc1ccc(CC(N)=O)cc1 (stereo not shown) [atenolol]
- beating frequencies [1, 3]: reduced the beating frequencies
- cFPD [1, 3]: restored cFPDs
